This note sets out measurements from PubChem BioAssay AID1626 (SRMLSC, 2009).

This test relates to M. tuberculosis H37Rv growth inhibition. Briefly: M. tuberculosis H37Rv growth inhibitors, H37Rv strain (AID 1626). Conditions: for IC90: measured here: IC90 against H37Rv; for CC50: measured here: Vero cell cytotoxicity.

In the case of `O=C(Nc1ccc(-n2cccc2)cc1)C1CC1`, the concentration for half-maximal inhibition (IC50) was < 0.195 µM and the 90% effect concentration (IC90) is > 100 µM.
Consider `CCCCOC(=O)c1ccc(NC(=O)C2CCCO2)cc1` (stereo unspecified), for which the IC50 is 14.2 µM and the IC90 was > 100 µM.
For `COc1cccc(OCCNC(=O)c2cc([N+](=O)[O-])cc([N+](=O)[O-])c2)c1` the same measures were < 0.195 µM and 0.747 µM.
Turning to `O=C1c2cccc3cc([N+](=O)[O-])cc(c23)C(=O)N1CCN1CCCC1`, the IC50 is 4.6 µM, the IC90 is 5.71 µM and the CC50 is 1.8 µM.
For `O=C(OCC(=O)c1c[nH]c2ccccc12)c1cc2ccccc2cc1O` the same measures were 11.3 µM, > 100 µM and > 40 µM.
In the case of `CSc1ccc(/C=C/C(=O)c2ccc(O)cc2)cc1`, the half-inhibitory concentration (IC50) is 9.87 µM, the IC90 turned out to be 13.7 µM and the CC50 amounted to 30.7 µM.
In the case of `CCCCOC(=O)c1ccc(NC(=O)C(=O)NCc2ccccn2)cc1`, the IC90 is > 100 µM.
For `CCn1cnc2sc(C(=O)Oc3cccc(C)c3)c(C)c2c1=O`, the IC50 is < 0.195 µM and the IC90 turned out to be 2.36 µM.
In the case of `C/C(=N\N=C(/N)SC1CC(=O)N(c2ccc(Br)cc2)C1=O)c1cccs1` (stereo unspecified), the IC50 was 9.24 µM, the concentration for an effect of 90% (IC90) worked out at 16.8 µM and the CC50 is > 40 µM.
Regarding `COc1ccc(N)cc1-n1cnnn1`, the IC90 was > 100 µM.
`COc1ccc(C(C(=O)NC2CCCCC2)N(C(=O)c2sc(C)nc2C)c2ccccc2C)cc1` (stereo unspecified): the IC50 is 6.96 µM, the IC90 amounted to 11.4 µM and the CC50 was > 40 µM.
Regarding `Cc1cccc(N2CCN(C(=O)/C=C/c3cccs3)CC2C)c1` (stereo unspecified), the IC50 is 23.4 µM and the concentration for an effect of 90% (IC90) stood at 26.5 µM.
For the compound `O=C1/C(=C/c2ccccc2[N+](=O)[O-])COc2ccccc21`, the IC50 was 2.9 µM, the IC90 was 3.25 µM and the CC50 worked out at 5.95 µM.
With `O=C(CSc1ccccn1)Nc1ccc2ccccc2c1`, the concentration for half-maximal inhibition (IC50) is 8.69 µM and the IC90 is > 100 µM.
For the compound `Cc1cc(NC(=O)CSc2nnc(-c3ccc4c(c3)OCCO4)o2)no1`, the half-maximal inhibitory concentration (IC50) was 1.49 µM, the IC90 was found to be 2.53 µM and the CC50 was > 40 µM.
In the case of `CC1=Nc2ccccc2/C1=C/c1sc(=N)n(-c2nccs2)c1O`, the IC50 was < 0.195 µM, the IC90 is < 0.195 µM and the CC50 amounted to 14.3 µM.
As to `CCCCCCc1cc2cc(C(=O)NC)c(=N)oc2cc1O`, the IC50 is 4.69 µM and the IC90 came out at 7.11 µM.
Turning to `CC(C)(C)C1CCc2c(sc(NC(=O)CSc3nnc(-c4ccccc4)o3)c2C#N)C1` (stereo unspecified), the concentration for an effect of 90% (IC90) was > 100 µM.
Consider `Cc1nc(SCc2cccc(F)c2)c2oc3ccccc3c2n1`, for which the IC50 was 0.588 µM and the IC90 was determined as 18 µM.
Take `O=[N+]([O-])c1cc2cccnc2c2ncccc12`: the IC50 was 1.4 µM, the 90% effect concentration (IC90) was found to be 1.49 µM and the CC50 worked out at 33 µM.
Taken in the same sequence, the figures for `Oc1ccccc1N=Cc1ccc[nH]1` were 3.04 µM, 6.39 µM and > 40 µM.
On to `N#Cc1ccc(/C=C/C(=O)c2cccnc2)cc1`, for which the IC50 is 4.84 µM, the IC90 stood at 6.15 µM and the CC50 came to 19.3 µM.
On to `O/N=C/c1ccc2ccccc2c1`, for which the IC90 was > 100 µM.
With `COc1cccc(Nc2c3c(nc4c(-c5ccccc5)c(C)nn24)CCC3)c1`, the IC50 was 3.4 µM, the IC90 was found to be 5.95 µM and the CC50 was > 40 µM.
Take `CCOC(=O)c1ccc(N2CSC3=C(C#N)C(c4ccc(OC)cc4OC)CC(=O)N3C2)cc1` (stereo unspecified): the half-maximal inhibitory concentration (IC50) is 41.8 µM and the IC90 is > 100 µM.
Turning to `Cc1ccc(Cn2c(NC(=O)c3ccco3)nc3ccccc32)cc1`, the IC50 was 4.08 µM, the IC90 is > 100 µM and the CC50 was > 40 µM.
Taken in the same sequence, the figures for `Cc1ccc(-n2nnnc2Sc2nc([N+](=O)[O-])nn2C)cc1C` were 7.23 µM, 13.2 µM and 37.6 µM.
Regarding `Nc1nc2ccccc2n1C(=O)c1ccc(F)cc1`, the IC50 is 1.93 µM, the IC90 came to 4.15 µM and the CC50 is > 40 µM.
Turning to `O=C(Nc1ccc(CN2CCOCC2)cc1)c1ccc(-c2ccc(Br)cc2)o1`, the half-inhibitory concentration (IC50) is 7.09 µM, the IC90 came out at 13.2 µM and the CC50 amounted to 32 µM.
Taken in the same sequence, the figures for `CCCCCc1cc(=O)oc2c(C(CCN3CCCCC3)c3cc(OC)c(OC)c(OC)c3)c(OC)cc(OC)c12` (stereo unspecified) were 4.18 µM, 5.62 µM and 13.7 µM.
As to `COc1cccc(/C=C/C(=O)c2cccc([N+](=O)[O-])c2)c1`, the IC50 was 6.89 µM, the IC90 is > 100 µM and the CC50 worked out at 35.9 µM.
Consider `CCN(CC)CCOC(=O)c1ccc(N/C=C(/C#N)c2nc(-c3ccc(OC)c(OC)c3)cs2)cc1`, for which the IC50 is 4.16 µM, the IC90 stood at 22.1 µM and the CC50 was > 40 µM.
Taken in the same sequence, the figures for `Oc1cccc2ccc(/C=C/c3cccs3)nc12` were 1.49 µM, 4.51 µM and > 40 µM.
For `Clc1ccc(CNc2nc(CN3CCOCC3)nc3scc(-c4ccccc4)c23)cc1` the same measures were 22 µM, 25 µM and > 40 µM.
`COc1ccc(-c2nsc(SCC(=O)NCC3CCCO3)n2)cc1` (stereo unspecified): the IC50 is 2.25 µM and the IC90 was 5.2 µM.
Taken in the same sequence, the figures for `CCc1cc2cc(C(=O)Nc3ccc(C)cc3)sc2s1` were 1.34 µM and 1.81 µM.
As for `COc1ccc(NC2=CC(c3ccc(OC)cc3)N(c3ccc(OC)cc3)C2=O)cc1` (stereo unspecified), the IC90 is > 100 µM and the CC50 was > 40 µM.
On to `Cc1ccc(-c2c[n+](CC(=O)Nc3nc(-c4ccc(F)cc4)cs3)c3n2CCC3)cc1`, for which the IC50 was 4.87 µM and the 90% effect concentration (IC90) was 7.09 µM.
For `O=C(NC1CCCCC1)C(c1ccc2ncccc2c1)N(Cc1ccccc1)C(=O)c1ccc2c(c1)OCCO2` (stereo unspecified), the IC50 is 19 µM and the IC90 is 28.2 µM.
As to `CCC(=O)c1coc2ccc(O)cc12`, the half-inhibitory concentration (IC50) was 11.1 µM and the IC90 is > 100 µM.
Taken in the same sequence, the figures for `CCCCc1ccc(NC(=O)CC(C)C)cc1` were 6.02 µM and > 100 µM.
Take `O=C(CCCSc1ccccc1)Nc1nc(-c2ccccn2)cs1`: the IC50 was 0.239 µM, the IC90 amounted to 5.04 µM and the CC50 is > 40 µM.
As to `CCCNC(=O)NC(=O)COc1ccc(-c2ccc(C#N)cc2)cc1`, the IC50 is 0.754 µM and the IC90 was > 100 µM.
For `O=C(Nc1cccc2ccccc12)c1ccc([N+](=O)[O-])s1` the same measures were 51.4 µM and > 100 µM.
Turning to `CCOC(=O)C1=C(CC)Nc2ccccc2N=C1NC(=O)Nc1ccc(Cl)c(Cl)c1`, the IC50 is 2.73 µM, the IC90 is 3.1 µM and the CC50 was found to be 10.3 µM.
For `Cc1ccccc1/C=c1\s/c(=C\C(=O)C(C)(C)C)[nH]c1=O` the same measures were 52.8 µM, > 100 µM and 17.2 µM.
With `CCOC(=O)CSc1nnc(-c2ccc(Cl)cc2Cl)o1`, the IC50 was < 0.391 µM and the 90% effect concentration (IC90) came to 9.47 µM.
On to `O=C(Nc1ccc(Oc2ccccc2)cc1)C1CC1`, for which the 50% inhibitory concentration (IC50) is 14 µM, the IC90 is > 100 µM and the CC50 is > 40 µM.
Turning to `Cc1ccc(S(=O)(=O)NCCC(=O)Nc2ccc(C)c(Cl)c2)cc1C`, the IC50 was 19.8 µM, the IC90 was > 100 µM and the 50% cytotoxic concentration (CC50) was > 40 µM.
Taken in the same sequence, the figures for `c1ccc(CN2CCC(N=C3NN=C(c4ccc5c(c4)OCCO5)CS3)CC2)cc1` were 18.2 µM, 21.6 µM and > 40 µM.
Turning to `Cc1nn2c(NCc3ccccn3)cc(C(C)C)nc2c1-c1ccccc1`, the CC50 was > 40 µM.
For `Cc1cccc(C(=O)Nc2ccc(C(=O)/C=C/c3cccnc3)cc2)c1`, the IC50 was 6.04 µM, the IC90 was 9.07 µM and the CC50 is 22.3 µM.
Taken in the same sequence, the figures for `COc1ccc(/C=C2\SC(=N)N(c3nccs3)C2=O)cc1OC` were < 0.195 µM, > 100 µM and 17.9 µM.
In the case of `COc1ccc(C2=CC(c3c(C)nn(-c4ccccc4)c3Cl)n3nnnc3N2)cc1OC` (stereo unspecified), the IC50 was 8.88 µM and the IC90 stood at 14.1 µM.
For the compound `COc1ccc(NC(=O)CSC2=C(C#N)C(c3ccco3)C(C(=O)Nc3nc4ccccc4s3)=C(C)N2)cc1` (stereo unspecified), the IC50 is 14 µM, the IC90 is > 100 µM and the CC50 was > 40 µM.
For `COc1ccc(Nc2nc(-c3ccc4c(c3)NC(=O)CO4)cs2)cc1` the same measures were 10 µM, > 100 µM and > 40 µM.
Take `CN1C[C@@H]2C(c3ccc(C(F)(F)F)cc3)C3(c4cccnc4)CC2(C3)[C@H]1c1ccccc1` (stereo partly specified): the IC50 was 14.1 µM and the concentration for an effect of 90% (IC90) amounted to 21.4 µM.
Take `C/C(=C\C(=S)Nc1ccccc1)Nc1ccc2ccccc2c1`: the IC50 was 4.39 µM, the IC90 was found to be 48.9 µM and the CC50 is > 40 µM.
For `O=c1[nH]c(-c2ccccn2)nc2ccccc12` the same measures were 5.87 µM, 6.72 µM and > 40 µM.
Regarding `CCOC(=O)c1c(NC(=O)C2COc3ccccc3O2)sc2c1CC(C)(C)NC2(C)C` (stereo unspecified), the IC50 is 12.6 µM and the IC90 came out at 13.7 µM.
With `O=C(c1ccccc1)c1c2c(cc3sc4ccccc4[n+]13)-c1cccc3cccc-2c13`, the IC50 is 2.81 µM, the IC90 came out at 5.22 µM and the CC50 amounted to 23.1 µM.
Taken in the same sequence, the figures for `N#C/C(=C\c1ccccn1)c1nc2ccccc2s1` were 14.9 µM, > 100 µM and > 40 µM.
With `Cc1cc(C)c2c(n1)sc1c(N3CCCCC3)ncnc12`, the IC50 is 16.7 µM and the IC90 was > 100 µM.
As to `Cc1cc(C)n(-c2nc(NC(C)(C)C)nc(NC(C)(C)C)n2)n1`, the IC50 is < 0.195 µM, the IC90 came to 21 µM and the cytotoxic concentration (CC50) was > 40 µM.
With `O=C(c1cc2c(F)cccc2s1)N1CCCC1`, the IC50 is 7.87 µM and the IC90 is > 100 µM.

Broadly, the IC50 is the point on the concentration scale where inhibition reaches its midpoint. A word on the IC90: it is the point of the concentration-response curve where the effect stands at 90%. A lower IC90 goes with greater potency. One may read the CC50 as the concentration giving 50% cytotoxicity.
